The nature of data set [1]: Mouse model of allergic asthma (ovalbumin). The data set is classed as in vivo. The text has this: Mice are sensitized to ovalbumin (chicken protein) in the presence of an adjuvant (Alum) by the intraperitoneal route on day 0 and day 7. One week later, mice are challenged intranasally with ovalbumin on Days 14, 15 and 16 (more stringent model) or on Day 14 (less stringent model). This sensitization and challenge regimen leads to airway hyperresponsiveness and inflammation in the lungs, which are two dominant characteristics of human allergic asthma. In the mouse model, the in vivo airway responses are measured using a whole body plethysmograph which determines the PENH (enhanced Pause, Buxco Electronics). The PENH is a dimensionless value comprised of the peak inspiratory flow (PIF), peak expiratory flow (PEF), time of inspiration, time of expiration and relaxation time, and is considered a validated parameter of airway responsiveness. Responses to allergen challenge (OVA) are compared with animals challenged with saline only. Twenty-four hours after challenge, mice are exposed to increasing doses of methacholine (muscarinic receptor agonist) which results in smooth muscle contraction. […] In addition, a cellular infiltrate in the airway is observed in ovalbumin challenged mice when compared with the saline challenged mice. This cellular infiltrate is mainly characterized by eosinophils, but a smaller influx of neutrophils and mononuclear cells is also present.
The use of this model for the evaluation of small molecule inhibitors of mast cell degranulation has been validated is several ways. First, using mast cell deficient mice (W/W^v) it has been shown that the ovalbumin-induced responses are dependent upon the presence of mast cells.

A short description of data set [2]: Sheep model of allergic asthma (Ascaris suum challenge). The data set is classed as in vivo. As to conditions: administered in an aqueous suspension. Here is the method: Sheep develop bronchoconstriction within minutes of exposure to inhaled antigen (Ascaris suum), with maximal airflow obstruction during the early allergic response (EAR). Release of preformed mast cell mediators is likely responsible for this early phase of airflow obstruction. […] In the sheep, AHR develops a few hours following antigen challenge, and can persist for up to 2 weeks.
In the sheep model of allergic asthma, sheep are administered aerosols of test article via an endotracheal tube, followed by an aerosol challenge with antigen extracted from the roundworm, Ascaris suum, to which the sheep are naturally allergic. Allergen challenge leads to direct bronchoconstriction (both EAR and LAR) and a persistent non-specific AHR. These three characteristics are similar to those seen in human allergic asthmatics. The activity of the test agent is determined by changes in the lung resistance (RL), which is calculated from measurements of transpulmonary pressure, flow, and respiratory volume. […] The LAR is a less pronounced increase in RL, which starts approximately 5-6 hours following allergen challenge and is resolved by 8 hours post-challenge. Twenty-four hours after the challenge, a dose response to carbachol is measured to determine the AHR, which is expressed as the dose of carbachol required to increase RL by 400% over baseline. […]

For data set [3], the system named is basophils in whole human peripheral blood. Briefly: Basophil ionomycin activation: histamine release assay. The data set is classed as cell-based. Here is the method: Assays for ionomycin-induced basophil cell degranulation were carried out as described for the Basophil IgE or Dustmite Activation Assay (Section 6.4.6, supra), with the exception that following incubation with compound, cells were stimulated with 20 μl of 2 μM ionomycin.

Data set [4] deals with IgE-induced degranulation of tissue mast cells. Briefly: Mouse model of passive cutaneous anaphylaxis (PCA). Type of data set: in vivo. As to conditions: oral route in a PEG-based formulation, data not shown. Here is the method:
This model provides a direct measure of IgE-induced degranulation of tissue mast cells. In this model, IgE primed animals are exposed to an allergen challenge, and the change in permeability of dermal vasculature that results from histamine release from mast cells is measured by change in the amount of dye leakage into surrounding tissue. Inhibition of mediator release by compounds that modulate mast cell degranulation is easily measured by extracting the dye from the tissue.
In the PCA assay mice are passively sensitized by intradermal injection with anti-dinitrophenol (DNP) IgE antibodies (Day −1). At predetermined times animals are treated with the test agent (Day 0). The modulatory effect of the agent on cutaneous mast cell degranulation is measured following intravenous injection of DNP conjugated to human serum albumin (HSA-DNP), together with Evans blue dye. The resulting cross-linking of the IgE receptor and subsequent mast cell degranulation-induced increase in vascular permeability is determined by measuring the amount of dye extravasation into the tissue. Dye is extracted from the tissue by formamide, and the absorbance of this extract is read at 620 nm.

Data set [5] in a line: Oral bioavailability / pharmacokinetics in rats. The data set is classed as in vivo. The settings on record: rats. Here is the method:
Over 50 2,4-pyrimidinediamine compounds of the invention were tested for oral bioavailability. For the study, compounds were dissolved in various vehicles (e.g. PEG 400 solution and CMC suspension) for intravenous and oral dosing in the rats. Following administration of the drug, plasma samples were obtained and extracted. The plasma concentrations of the compounds were determined by high performance liquid chromatography/tandem mass spectrometry (LC/MS/MS) methods. Pharmacokinetic analyses were performed based on the plasma concentration data. The pharmacokinetic parameters of interest include Clearance (CL), Volume of distribution at steady-state (Vss), terminal half-life (t1/2), and oral bioavailability (% F).

Data set [6] deals with cultured human mast cells (CHMC). Briefly: CHMC low cell density IgE activation: tryptase and LTC4 assays. The data set is classed as cell-based. The settings on record: Homo sapiens, Mast cell, Low Density CHMC, anti-IgE activation, tryptase readout; read-out: CHMC anti-IgE Tryptase. The gist of the method: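 Degranulation measured after 30 min anti-IgE challenge at 37° C of CHMC plated at 1000-1500 cells/well following 1 h preincubation. Readouts: LTC4 by ELISA on donor-specific diluted supernatants, and tryptase activity from a 30 min room-temperature substrate reaction.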

Data set [7] has as its system FcεR1-mediated degranulation in mast cells. Briefly: FcεRI-mediated (anti-IgE induced) degranulation assay in mast cells. The data set is classed as cell-based. As to conditions: Mast cell; range stated for the whole listed group of compounds; read-out: inhibition of FcεR1-mediated degranulation in mast cells (IC50s).
The test system of data set [8] is cultured human mast cells (CHMC). The experiment in a line: CHMC low cell density ionomycin activation: tryptase assay. Type of data set: cell-based. As to conditions: Homo sapiens, Mast cell, Low Density CHMC, ionomycin activation, tryptase readout; read-out: CHMC Ionomycin Tryptase.
For data set [9], the system named is proteins downstream of Syk kinase and LYN kinase in activated CHMC cells. The experiment in a line: Phosphorylation of proteins in the FcεRI signal transduction cascade in activated CHMC cells. The data set is classed as cell-based, human. The settings on record: FIG. 10.
Data set [10] deals with FcγRI receptor-mediated degranulation. The experiment in a line: FcγRI-mediated degranulation (activation with anti-human IgG Fab fragment). The settings on record: cells not primed with IgE, activated with rabbit anti-human IgG Fab fragment.
In a further data set the target is Syk kinase (Homo sapiens (Human), UniProt P43405). Briefly: Isolated Syk kinase biochemical assay (phosphorylation of a peptide or endogenous substrate).
The test system of a further data set is Jurkat cells. The experiment in a line: Jurkat toxicity: Cell Titer Glo assay. The data set is classed as cell-based. The settings on record: Homo sapiens, 18 hours. Here is the method:
Seed 50 μl cells (1×10^6/ml) into each well containing 50 μl compound. […] Shake plates for 1 minute to mix cells and compound. Incubate plates at 37° C. […] Next day, harvest 50 μl cells from each well, add to 50 μl Cell Titer Glo reagent ([…]). Shake plates for 1 minute. Read on luminometer.
In general terms: ATP-based viability assays read luminescence as a measure of living cells.

Data set [11] has as its system bone marrow derived mast cells (BMMC). Briefly: BMMC high cell density IgE activation: degranulation (hexosiminidase, histamine), leukotriene (LTC4) and cytokine (TNFalpha, IL-6) assays. The data set is classed as cell-based. The settings on record: Mus musculus, anti-IgE activation.

pIC50: −log10 of the molar value. Read-outs that look alike come from different tables or passages of the source.

Turning to `CCCC1O[C@@H]2C[C@H]3[C@@H]4CCC5=CC(=O)C=C[C@]5(C)[C@H]4[C@@H](O)C[C@]3(C)[C@]2(C(=O)CO)O1` (some centres unmarked) [budesonide, reference compound], the methacoline-induced bronchocontriction entry in data set [1] (model validation) is “inhibitory effect”.

Turning to `CNC(=O)COc1cccc(Nc2ncc(C(F)(F)F)c(Nc3cccc(O)c3)n2)c1` [Compound R926742, N4-(3-Hydroxyphenyl)-5-trifluoromethyl-N2-[3-(N-methylamino)carbonylmethyleneoxyphenyl]-2,4-pyrimidinediamine], the “effect on the EAR (in words)” value in data set [2] is “failed to inhibit the EAR”. In [3], this compound had a pIC50 of less than 5.00. Further, the “inhibition of the PCA response” value in data set [4] is listed as “able to inhibit the PCA response”.

In the case of `C[C@@H]1C[C@H]2[C@@H]3CCC4=CC(=O)C=C[C@]4(C)[C@@]3(F)[C@@H](O)C[C@]2(C)[C@@]1(O)C(=O)CO` [dexamethasone, reference compound], in [1] (model validation), the methacoline-induced bronchocontriction entry is given as “inhibitory effect”.

On to `Cn1ncc2cc(Nc3ncc(F)c(Nc4ccc5c(c4)OCCO5)n3)ccc21` [Compound R935193, N4-(3,4-Ethylenedioxyphenyl)-5-fluoro-N2-(1-methyl-indazoline-5-yl)-2,4-pyrimidinediamine], for which, in data set [5], the “oral bioavailabilities and half-lives (in words)” value was “good oral bioavailabilities and half-lives in rats”.

`CNC(=O)C1Cc2cc(Nc3ncc(F)c(Nc4ccc(OC(C)C)cc4)n3)ccc2O1` (centres unmarked) [Compound R926956, 5-Fluoro-N2-[2,3-dihydro-2-[(N-methylamino)carbonyl]benzofuran-5-yl]-N4-(4-isopropoxyphenyl)-2,4-pyrimidinediamine]: the pIC50 was 6.68 in data set [6], 5.78 to 7.52 in data set [7] and less than 5.00 in data set [8].

As to `O=C(O)c1cc(=O)c2c(OCC(O)COc3cccc4oc(C(=O)O)cc(=O)c34)cccc2o1` [Cromolyn, reference compound], the “ovalbumin-induced airway hyperresponsiveness and inflammation” value in data set [1] (model validation, data not shown) was “able to block the ovalbumin-induced airway hyperresponsiveness and inflammation”.

In the case of `CC(C)(C)n1nc(-c2ccc(Cl)cc2)c2c(N)ncnc21` [PP2, reference compound], in data set [9], the “phosphorylation of proteins downstream of LYN kinase in the FcεRI signal transduction cascade” value is given as “inhibition of phosphorylation”.

Regarding `CC1(C)Oc2ccc(Nc3ncc(F)c(Nc4ccc5c(c4)NC(=O)C(C)(C)O5)n3)cc2NC1=O` [Compound R940350, N2,N4-[(2,2-Dimethyl-4H-benzo[1,4]oxazin-3-one)-6-yl]-5-fluoro-2,4-pyrimidinediamine], the “oral bioavailabilities and half-lives (in words)” value in data set [5] was “good oral bioavailabilities and half-lives in rats”. The “inhibition of FcγRI-mediated degranulation” value in [10] was “inhibit FcγRI-mediated degranulation”.

Regarding `COc1cc(Nc2ncc(F)c(Nc3ccc4c(c3)NC(=O)C(C)(C)O4)n2)cc(OC)c1` [Compound R927050], in [5], the “oral bioavailabilities and half-lives (in words)” value is “good oral bioavailabilities and half-lives in rats”. In addition, in data set [10], the “inhibition of FcγRI-mediated degranulation” value is “inhibit FcγRI-mediated degranulation”.

Take `Fc1cnc(Nc2ccc3cn[nH]c3c2)nc1Nc1ccc(Cl)c(Cl)c1` [Compound R935372, N4-(3,4-Dichlorophenyl)-5-fluoro-N2-(indazoline-6-yl)-2,4-pyrimidinediamine]: in data set [5], the “oral bioavailabilities and half-lives (in words)” value was “good oral bioavailabilities and half-lives in rats”. Besides, the “inhibition of FcγRI-mediated degranulation” value in [10] was “inhibit FcγRI-mediated degranulation”.

As for `CNC(=O)COc1cccc(Nc2ncc(F)c(Nc3ccc4c(n3)NC(=O)CO4)n2)c1` [Compound R921304, 5-Fluoro-N2-(3-methylaminocarbonylmethyleneoxyphenyl)-N4-[2H-pyrido[3,2-b]-1,4-oxazin-3(4H)-one-6-yl]-2,4-pyrimidinediamine], the “ovalbumin-induced airway hyperresponsiveness to methacholine” value in data set [1] (intranasal, 10 consecutive days (Day 7 through Day 16), 20 mg/kg) is given as “able to inhibit the ovalbumin-induced airway hyperresponsiveness to methacholine”. Moreover, the “airway responses in a mouse model of allergic asthma” value in data set [1] (summary) is given as “efficacious in inhibiting the airway responses”.

Turning to `OCCCn1ncc2cc(Nc3ncc(F)c(Nc4ccc(Cl)c(Cl)c4)n3)ccc21` [Compound R935391], the “oral bioavailabilities and half-lives (in words)” value in data set [5] was “good oral bioavailabilities and half-lives in rats”.

Turning to `COc1cc(Nc2ncc(F)c(Nc3cccc(O)c3)n2)cc(OC)c1` [Compound R926780, N2-(3,5-Dimethoxyphenyl)-5-fluoro-N4-(3-hydroxyphenyl)-2,4-pyrimidinediamine], the pIC50 in data set [7] was 5.78 to 7.52; against Syk kinase it was 5.73 to 8.52; in the data set on Jurkat cells, less than 5.30; in [11] (IL-6 release, read-out: BMMC anti-IgE IL-6 IC50), more than 6.66; in data set [11] (LTC4 release, read-out: BMMC anti-IgE LTC4 IC50), 6.34; in [11] (TNF-alpha release, read-out: BMMC anti-IgE TNF-alpha IC50), more than 6.66. Besides, the pIC50 is more than 6.66 in [11] (hexosaminidase release, read-out: BMMC anti-IgE hexos IC50); more than 6.66 in [11] (histamine release, read-out: BMMC anti-IgE histamine IC50); less than 5.00 in data set [8].

Source of the values: US10828301B2, “2,4-pyrimidinediamine compounds and their uses” (Rigel Pharmaceuticals, Inc, priority 2002, dated 2020).
